This note sets out measurements from article PMC6611809, “Actin stabilizing compounds show specific biological effects due to their binding mode” (Scientific Reports, 2019).

The target in this test is T1, actin (F-actin) (Oryctolagus cuniculus, UniProt P68135).
T1 construct: gene ACTA1; Atto488-labeled F-actin from rabbit skeletal muscle
Briefly: TIRF displacement of rhodamine-phalloidin from purified actin filaments; supported by pyrene, TIRF and FCS polymerization assays. The test is classed as binding. The text has this:
TIRF displacement of rhodamine-phalloidin from purified actin filaments; supported by pyrene, TIRF and FCS polymerization assays on actin (F-actin) | Rhodamine-labeled phalloidin could be displaced from actin filaments by MiuA in a concentration dependent manner

By IC50 is commonly meant the concentration at which inhibition is half-maximal. A low value points to greater potency in that assay. `CO/C(=C1/NC(=O)C(Cc2ccc(O)c(Br)c2)N(C)C(=O)C(C)NC(=O)CCC/C=C(\C)CCC(C)OC1=O)c1ccccc1` (stereo not shown) [MiuA, Miuraenamide A]: the IC50 is approximately 5 nM.
